# Results reported in patent publication US6610299B1, “Glycosyl-etoposide prodrugs, a process for preparation thereof and the use thereof in combination with functionalized tumor-specific enzyme conjugates” (Aventis Pharma Deutschland GmbH, priority 1989, dated 2003).
# Legend:
# alpha-glucosidase = settings: in vitro, enzyme alpha-glucosidase
# [1] = system: tumor-specific antibody-glucosidase conjugate; settings: in vitro
# [2] = molecular target: T1, 431/26 hum VH huβGlc 1H fusion protein (Homo sapiens, UniProt P01860+P08236); test: prodrug cleavage by β-glucuronidase (fusion protein), HPLC; assay type: biochemical
# T1 construct: made in house; host or cells: BHK cells
# Description: (§1) It was shown in Example 17 that the β-glucuronidase portion of the fusion protein is able, like the native human enzyme, to cleave the β-glucuronide of 4-methylumbelliferol. In the investigations which are described hereinafter, the substrate used for the enzymatic cleavage was a β-glucuronide, linked via a spacer group, of the cytostatic daunomycin. The specific procedure for these investigations was as follows:
# (§2) 4 mg of the compound N-(4-hydroxy-3-nitrobenzyloxy-carbonyl)daunorubicin β-D-glucuronide (prodrug), which is described in French Patent Application (No. d'Enregistrement National: 9105326) were dissolved in 1 ml of 20 mM phosphate buffer, pH 7.2. 35 μl of the fusion protein (Example 21) or of human β-glucuronidase (total concentration in each case 6.5 U/ml; 1 U=cleavage of 1 μmol of 4-methyl-umbelliferol/min at 37° C.) were pipetted into 5 μl portions of this substrate solution and incubated in the dark at 37° C. Samples (5 μl) of the incubation mixture were removed after various times and immediately analyzed by high pressure liquid chromatography under the following conditions:
# (§3) Nucleosil 100 RP 18, 5 μm particle diameter, 125×4.6 mm
# (§4) Gradient of solution A (100% acetonitrile) and solution B (20 mM phosphate buffer pH.3.0)
# (§5) Detection: fluorescence, excitation 495 nm, emission […]
# (§6) Data analysis: Beckman System Gold Software
# human β-glucuronidase = molecular target: T2, human β-glucuronidase (Homo sapiens, UniProt P08236); test: prodrug cleavage by β-glucuronidase (human, recombinant), HPLC; assay type: biochemical
# T2 sequence (P08236 23-651): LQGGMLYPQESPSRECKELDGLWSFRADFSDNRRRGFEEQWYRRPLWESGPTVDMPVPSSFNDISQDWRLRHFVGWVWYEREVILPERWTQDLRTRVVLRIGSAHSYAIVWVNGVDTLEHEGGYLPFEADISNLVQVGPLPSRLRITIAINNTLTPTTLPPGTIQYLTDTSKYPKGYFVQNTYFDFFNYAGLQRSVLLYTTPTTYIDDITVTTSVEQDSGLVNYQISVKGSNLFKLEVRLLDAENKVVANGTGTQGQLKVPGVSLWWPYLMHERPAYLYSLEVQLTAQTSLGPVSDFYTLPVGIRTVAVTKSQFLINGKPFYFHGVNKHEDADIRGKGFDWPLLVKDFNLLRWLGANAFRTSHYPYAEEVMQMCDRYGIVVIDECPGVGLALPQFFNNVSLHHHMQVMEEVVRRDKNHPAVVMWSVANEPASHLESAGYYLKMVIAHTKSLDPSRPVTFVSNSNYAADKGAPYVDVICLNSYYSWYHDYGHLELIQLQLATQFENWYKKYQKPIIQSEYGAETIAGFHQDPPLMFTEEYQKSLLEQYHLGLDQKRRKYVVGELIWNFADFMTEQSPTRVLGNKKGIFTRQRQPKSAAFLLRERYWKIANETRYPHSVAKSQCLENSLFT
# Description: as §1, §2, §3, §4, §5, §6
# T1 sequence (P01860+P08236 fused): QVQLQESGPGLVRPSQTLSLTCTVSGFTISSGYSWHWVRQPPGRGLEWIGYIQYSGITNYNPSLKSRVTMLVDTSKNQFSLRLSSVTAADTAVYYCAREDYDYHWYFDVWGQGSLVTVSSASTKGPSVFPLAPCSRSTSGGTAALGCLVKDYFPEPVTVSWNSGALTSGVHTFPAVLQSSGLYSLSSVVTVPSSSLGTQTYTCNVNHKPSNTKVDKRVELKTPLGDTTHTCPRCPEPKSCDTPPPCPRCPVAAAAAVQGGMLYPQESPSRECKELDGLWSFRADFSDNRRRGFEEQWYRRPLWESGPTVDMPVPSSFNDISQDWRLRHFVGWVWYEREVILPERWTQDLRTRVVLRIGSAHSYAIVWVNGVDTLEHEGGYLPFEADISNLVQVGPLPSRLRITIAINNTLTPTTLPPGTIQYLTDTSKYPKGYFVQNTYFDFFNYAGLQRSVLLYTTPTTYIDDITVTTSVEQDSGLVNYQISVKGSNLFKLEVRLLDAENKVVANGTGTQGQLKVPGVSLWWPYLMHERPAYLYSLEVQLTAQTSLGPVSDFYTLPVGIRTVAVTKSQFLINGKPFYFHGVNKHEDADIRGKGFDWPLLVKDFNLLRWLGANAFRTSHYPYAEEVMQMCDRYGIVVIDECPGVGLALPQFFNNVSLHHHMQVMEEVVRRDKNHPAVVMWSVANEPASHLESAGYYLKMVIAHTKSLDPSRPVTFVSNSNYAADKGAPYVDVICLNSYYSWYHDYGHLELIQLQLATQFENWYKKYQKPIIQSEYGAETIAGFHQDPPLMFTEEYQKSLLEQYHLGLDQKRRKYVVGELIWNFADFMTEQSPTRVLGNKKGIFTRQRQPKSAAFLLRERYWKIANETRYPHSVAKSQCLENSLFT
compound,measurement,setting,value
4′-O-alpha-D-glucopyranosyl-etoposide,cleavage into etoposide and D-glucose,alpha-glucosidase,can be cleaved in vitro into etoposide and D-glucose
same,cleavage into etoposide and D-glucose,[1],can be cleaved in vitro into etoposide and D-glucose
"COc1cccc2c1C(=O)c1c(O)c3c(c(O)c1C2=O)C[C@@](O)(C(C)=O)C[C@@H]3O[C@H]1C[C@H](NC(=O)OCc2ccc(O[C@@H]3O[C@H](C(=O)O)[C@@H](O)[C@H](O)[C@H]3O)c([N+](=O)[O-])c2)[C@H](O)[C@H](C)O1 [Prodrug, N-(4-hydroxy-3-nitrobenzyloxy-carbonyl)daunorubicin β-D-glucuronide]",DNM area % (liberated daunomycin),[2]; t 0 min,1.1 area %
same,Prodrug area %,[2]; t 0 min,98.9 area %
same,DNM area % (liberated daunomycin),[2]; t 50 min,18.9 area %
same,Prodrug area %,[2]; t 50 min,81.1 area %
same,DNM area % (liberated daunomycin),[2]; t 135 min,48.3 area %
same,Prodrug area %,[2]; t 135 min,51.7 area %
same,DNM area % (liberated daunomycin),[2]; t 190 min,67.0 area %
same,Prodrug area %,[2]; t 190 min,33.0 area %
same,DNM area % (liberated daunomycin),[2]; t 247 min,78.0 area %
same,Prodrug area %,[2]; t 247 min,22.0 area %
same,DNM area % (liberated daunomycin),[2]; t 317 min,87.6 area %
same,Prodrug area %,[2]; t 317 min,12.4 area %
same,DNM area % (liberated daunomycin),human β-glucuronidase; t 0 min,0.8 area %
same,Prodrug area %,human β-glucuronidase; t 0 min,99.2 area %
same,DNM area % (liberated daunomycin),human β-glucuronidase; t 57 min,64.0 area %
same,Prodrug area %,human β-glucuronidase; t 57 min,36.0 area %
same,DNM area % (liberated daunomycin),human β-glucuronidase; t 130 min,89.7 area %
same,Prodrug area %,human β-glucuronidase; t 130 min,10.3 area %
same,DNM area % (liberated daunomycin),human β-glucuronidase; t 227 min,90.7 area %
same,Prodrug area %,human β-glucuronidase; t 227 min,9.3 area %
